Data from patent publication US6734316B2, “Esters of fatty acids and juvenoid alcohols, and a method of their preparation and use” (Institute of Organic Chemistry and Biochemistry ASCR, priority 2000, dated 2004).

System: termite Prorhinotermes simplex
Assay: Force feeding test (FF): juvenilizing effect (induction of soldier caste differentiation) on termite pseudergates
Assay type: in vivo
Conditions: 500 ppm in treated food, 60 pseudergates, 16 days, soldier caste induction in percents of surviving individuals
Excerpt: A Way of Screening of the Biological Activity of the Compound Claimed in the claim 1 of the General Formula I Against Termite Prorhinotermes Simplex
Termites have only a sample of food treated with the compound claimed in the claim 1 of the general formula I in the force feeding test (FF), but a choice between a sample of food treated with the compound claimed in the claim 1 of the general formula I and a reference sample of food treated with acetone only. A treatment of the food samples with the compound I claimed in the claim 1 has been made in at least two concentrations, 500 ppm and 5 ppm. A number of 60 pseudergates was exposed to a treatment in each test, and each test is twice repeated. Each test has 16 days duration. The induction of the soldier caste differentiation has been evaluated as the juvenilizing effect. The result is given in percents of the number of surviving individuals. The juvenoid methoprene has been used as the reference compound for testing of the biological activity of the compound I claimed in the claim 1. The results of screening of several structures corresponding the general formula I claimed in the claim 1 in a concentration of 500 ppm are given in Table 1.

Structure (SMILES)	Juvenilizing effect [%]
COC(C)(C)CCC[C@H](C)C/C=C/C(C)=C/C(=O)OC(C)C (racemic) [Methoprene, methoprene, reference compound]	1.3
CCCCCCCC/C=C\CCCCCCCC(=O)O[C@H]1CCCC[C@H]1Cc1ccc(OCCNC(=O)OCC)cc1 (relative stereo) [Ethyl N-{2-{4-[(cis-2-(cis-9-octadecenoyl)oxycyclohexyl)methyl]phenoxy}ethyl} carbamate]	93.7
CCCC(=O)O[C@H]1CCCC[C@H]1Cc1ccc(OCCNC(=O)OCC)cc1 (relative stereo) [Ethyl N-{2-{4-[(cis-2-butanoyloxycyclohexyl)methyl]phenoxy}ethyl} carbamate]	86.1
CCCCCCCCCCCCCCCC(=O)O[C@H]1CCCC[C@H]1Cc1ccc(OCCNC(=O)OCC)cc1 (relative stereo) [Ethyl N-{2-{4-[(cis-2-hexadecanoyloxycyclohexyl)methyl]phenoxy}ethyl} carbamate]	89.1
CCCCCCCCCCCCCCCCCC(=O)O[C@H]1CCCC[C@H]1Cc1ccc(OCCNC(=O)OCC)cc1 (relative stereo) [Ethyl N-{2-{4-[(cis-2-octadecanoyloxycyclohexyl)methyl]phenoxy}ethyl} carbamate]	40.0
CCCCCCCC/C=C\CCCCCCCC(=O)O[C@@H]1CCCC[C@H]1Cc1ccc(OCCNC(=O)OCC)cc1 (relative stereo) [Ethyl N-{2-{4-[(trans-2-(cis-9-octadecenoyl)oxycyclohexyl)methyl]phenoxy}ethyl} carbamate]	64.7
CCCC(=O)O[C@@H]1CCCC[C@H]1Cc1ccc(OCCNC(=O)OCC)cc1 (relative stereo) [Ethyl N-{2-{4-[(trans-2-butanoyloxycyclohexyl)methyl]phenoxy}ethyl} carbamate]	87.4
CCCCCCCCCCCCCCCC(=O)O[C@@H]1CCCC[C@H]1Cc1ccc(OCCNC(=O)OCC)cc1 (relative stereo) [Ethyl N-{2-{4-[(trans-2-hexadecanoyloxycyclohexyl)methyl]phenoxy}ethyl} carbamate]	90.1
CCCCCCCCCCCCCCCCCC(=O)O[C@@H]1CCCC[C@H]1Cc1ccc(OCCNC(=O)OCC)cc1 (relative stereo) [Ethyl N-{2-{4-[(trans-2-octadecanoyloxycyclohexyl)methyl]phenoxy}ethyl} carbamate]	70.0
